According to patent US11384099B2, “Pyrazolopyridinone compounds” (Janssen Pharmaceutica NV, priority 2017, dated 2022):
Where a name gives a salt, the structure may show the parent alone.

Tests used:
[1] = system: NIH/3T3 cells transfected with control vector (MOCK); assay: NIH/3T3 mock cell proliferation assay (CTG, counter assay); type: cell-based; conditions: Mus musculus, NIH3T3; 72-hr incubation, CellTiter Glo; counter assay for general toxicity
Description: NIH/3T3 Mock Cell Proliferation Assay
In day 1, 90 μL of cell suspension (NIH/3T3 cells transfected with the same control vector as in the above two proliferation assays) (total 30,000 cells per well in growth medium (DMEM containing 1% Glutamax, 10% FBS and 1% Pen/Strep)) was seeded in a 96-well plate and then incubated overnight at 37° C. and 5% CO2. In day 2, 10 μL of growth medium containing 10-fold stock solution of testing compound was added into cell cultures (9 dose points with 3× serial dilution, starting with 30 μM, 0.3% DMSO final). After 72-hr incubation at 37° C. and 5% CO2, in day 5 a volume of 50 μL CellTiter Glo (CTG) reagent was added into cell-containing 96-well plate and the plate was incubated at room temperature for 10 minutes before RLUs (relative light unit) were measured on a microplate reader with luminescence detection module. The RLU value was normalized to survival % and concentration-response curve was plotted using Prism to calculate IC50 (M), pIC50 (−log IC50) and HillSlope value.

[2] = target: T1, human FGFR3 V555M enzyme (cytoplasmic domain carrying V555M mutation) (Homo sapiens, UniProt P22607, V555M); assay: FGFR3 V555M mobility shift assay (enzymatic assay, Caliper); type: biochemical; conditions: 30 μM ATP, 45 minutes at 30° C.
T1 construct: cytoplasmic domain carrying V555M mutation, from Carna Biosciences; purchased Carna Biosciences
T1 sequence (P22607 397-806 V555M limits assumed): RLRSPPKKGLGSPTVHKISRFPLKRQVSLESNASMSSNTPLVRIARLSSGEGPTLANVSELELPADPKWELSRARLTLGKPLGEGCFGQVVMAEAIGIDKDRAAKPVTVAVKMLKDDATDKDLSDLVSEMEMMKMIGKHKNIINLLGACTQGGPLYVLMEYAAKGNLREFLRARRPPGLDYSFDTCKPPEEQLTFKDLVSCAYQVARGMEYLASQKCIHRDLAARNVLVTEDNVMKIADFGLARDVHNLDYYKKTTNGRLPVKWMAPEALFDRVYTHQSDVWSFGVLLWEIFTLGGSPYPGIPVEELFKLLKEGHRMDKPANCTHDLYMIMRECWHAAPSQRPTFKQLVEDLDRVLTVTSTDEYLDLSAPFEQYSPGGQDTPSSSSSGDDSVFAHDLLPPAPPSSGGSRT
Description: FGFR3 V555M Mobility Shift Assay (Enzymatic Assay)
(§1) In a final reaction volume of 25 μL, 0.04 ng/μL human FGFR3 V555M enzyme (cytoplasmic domain carrying V555M mutation, from Carna Biosciences) was incubated with 30 μM ATP, 1 μM FL-peptide 30 substrate and 250 nL of testing compound (1% DMSO final) in assay buffer (100 mM HEPES pH 7.4, 10 mM MgCl2, 0.003% Brij35, 1 mM DTT). After incubation for 45 minutes at 30° C. the reaction was stopped with 10 μL of 0.5M EDTA pH 8.0, and then L of reaction mixture was transferred to reading plate and measured on Caliper EZ reader II.

[3] = target: T2, human FGFR3 wild type enzyme (cytoplasmic domain) (Homo sapiens, UniProt P22607); assay: FGFR3 wild type mobility shift assay (enzymatic assay, Caliper); type: biochemical; conditions: 75 μM ATP, 50 minutes at 30° C.
T2 construct: human FGFR3 wild type enzyme (cytoplasmic domain, from Cama Biosciences); purchased Carna Biosciences
T2 sequence (P22607 397-806 limits assumed): as the sequence (P22607 397-806 V555M limits assumed) above, with M159V counted along it
Description: FGFR3 Wild Type Mobility Shift Assay (Enzymatic Assay)
as §1, with “FGFR3 wild type” for “FGFR3 V555M”, “(cytoplasmic domain,” for “(cytoplasmic domain carrying V555M mutation,”, “from Cama” for “from Carna”, “with 75” for “with 30”, “for 50” for “for 45”

Compound | IC50 [2] | IC50 [3] | IC50 [1]
CCn1cc2[nH]c(=O)c(-c3nc4cc(OC)c(OC)cc4[nH]3)c(N[C@@H](C)c3cocn3)c2n1 (single isomer, unassigned) [Compound 5A, (S*)-6-(5,6-Dimethoxy-H-benzo[d]imidazol-2-yl)-2-ethyl-7-((1-(oxazol-4-yl)ethyl)-amino)-2H-pyrazolo[4,3-b]pyridin-5 (4H)-one] | – | – | 380 nM
CC(C)[C@H](Nc1c(-c2nc3ccc(C(N)=O)cc3[nH]2)c(=O)[nH]c2cn(C)nc12)c1ncccn1 (single isomer, unassigned) [Compound 9, (S*)-2-(2-methyl-7-((2-methyl-1-(pyrimidin-2-yl)propyl)amino)-5-oxo-4,5-dihydro-2H-pyrazolo[4,3-b]pyridin-6-yl)-1H-benzo[d]imidazole-6-carboxamide] | – | – | 2700 nM
CC(C)[C@H](Nc1c(-c2nc3ccc(C(=O)N(C)C)cc3[nH]2)c(=O)[nH]c2cn(C)nc12)c1ncccn1 (single isomer, unassigned) [Compound 10, (S*)—N,N-dimethyl-2-(2-methyl-7-((2-methyl-1-(pyrimidin-2-yl)propyl)amino)-5-oxo-4,5-dihydro-2H-pyrazolo[4,3-b]pyridin-6-yl)-1H-benzo[d]imidazole-6-carboxamide] | – | – | 1370 nM
CC(C)[C@H](Nc1c(-c2nc3cnc(N(C)C)cc3[nH]2)c(=O)[nH]c2cn(C)nc12)c1ncccn1 (single isomer, unassigned) [Compound 11, (S*)-6-(6-(dimethylamino)-1H-imidazo[4,5-c]pyridin-2-yl)-2-methyl-7-((2-methyl-1-(pyrimidin-2-yl)propyl)amino)-2H-pyrazolo[4,3-b]pyridin-5 (4H)-one] | – | – | 1840 nM
COc1ccc2[nH]c(-c3c(NC(c4ncccn4)C(C)C)c4nn(C)cc4[nH]c3=O)nc2c1 (single isomer, unassigned) [Compound 15, (S*)-6-(5-Methoxy-1H-benzo[d]imidazol-2-yl)-2-methyl-7-((2-methyl-1-(pyrimidin-2-yl)-propyl)amino)-2H-pyrazolo[4,3-b]pyridin-5 (4H)-one] | – | – | 1340 nM
CC(C)C(Nc1c(-c2nc3cnccc3[nH]2)c(=O)[nH]c2cn(C)nc12)c1ncccn1 (single isomer, unassigned) [Compound 24, (S*)-6-(1H-imidazo[4,5-c]pyridin-2-yl)-2-methyl-7-((2-methyl-1-(pyrimidin-2-yl)propyl)-amino)-2H-pyrazolo[4,3-b]pyridin-5 (4H)-one] | – | – | 3010 nM
COC[C@@H](Nc1c(-c2nc3cc(OC)c(OC)cc3[nH]2)c(=O)[nH]c2cn(C)nc12)c1ncccn1 (single isomer, unassigned) [Compound 25, (S*)-6-(5,6-dimethoxy-H-benzo[d]imidazol-2-yl)-7-((2-methoxy-1-(pyrimidin-2-yl)-ethyl)amino)-2-methyl-2H-pyrazolo[4,3-b]pyridin-5 (4H)-one] | – | – | 4550 nM
COc1cc2nc(-c3c(N[C@H](c4ncccn4)C(C)C)c4nn(C)cc4[nH]c3=O)[nH]c2cc1OC (single isomer, unassigned) [Compound 27, (S*)-6-(5,6-dimethoxy-H-benzo[d]imidazol-2-yl)-2-methyl-7-((2-methyl-1-(pyrimidin-2-yl)propyl)amino)-2H-pyrazolo[4,3-b]pyridin-5 (4H)-one] | – | – | 722 nM
COCCOc1cc2[nH]c(-c3c(NC(c4ncccn4)C(C)C)c4nn(C)cc4[nH]c3=O)nc2cc1OC (single isomer, unassigned) [Compound 36, (S*)-6-(5-methoxy-6-(2-methoxyethoxy)-1H-benzo[d]imidazol-2-yl)-2-methyl-7-((2-methyl-1-(pyrimidin-2-yl)propyl)amino)-2H-pyrazolo[4,3-b]pyridin-5 (4H)-one] | 0.503 nM | 2.25 nM | 757 nM

More lines, main results first:

IC50 [2] | IC50 [3] | Compound | IC50 [1]
4.25 nM | 18 nM | COCC(Nc1c(-c2nc3ccc(OC)cc3[nH]2)c(=O)[nH]c2cn(C)nc12)c1ncccn1 (single isomer, unassigned) [Compound 12, (S*)-7-((2-methoxy-1-(pyrimidin-2-yl)ethyl)amino)-6-(6-methoxy-1H-benzo[d]imidazol-2-yl)-2-methyl-2H-pyrazolo[4,3-b]pyridin-5 (4H)-one] | 1500 nM
0.957 nM | 4.87 nM | CCC(Nc1c(-c2nc3ccc(OC)cc3[nH]2)c(=O)[nH]c2cn(C)nc12)c1ncccn1 (single isomer, unassigned) [Compound 17, (R*)-6-(6-Methoxy-1H-benzo[d]imidazol-2-yl)-2-methyl-7-((1-(pyrimidin-2-yl)propyl)-amino)-2H-pyrazolo[4,3-b]pyridin-5 (4H)-one] | 959 nM
1.69 nM | 8.51 nM | COc1cc2[nH]c(-c3c(NC(c4ncccn4)C(C)C)c4nn(C)cc4[nH]c3=O)nc2cn1 (single isomer, unassigned) [Compound 18, (S*)-6-(6-methoxy-1H-imidazo[4,5-c]pyridin-2-yl)-2-methyl-7-((2-methyl-1-(pyrimidin-2-yl)propyl)amino)-2H-pyrazolo[4,3-b]pyridin-5 (4H)-one] | 3120 nM
0.401 nM | 3.52 nM | CC(C)[C@H](Nc1c(-c2nc3ncc(N(C)C)cc3[nH]2)c(=O)[nH]c2cn(C)nc12)c1ncccn1 (single isomer, unassigned) [Compound 23, (S*)-6-(6-(dimethylamino)-1H-imidazo[4,5-b]pyridin-2-yl)-2-methyl-7-((2-methyl-1-(pyrimidin-2-yl)propyl)amino)-2H-pyrazolo[4,3-b]pyridin-5 (4H)-one 0.14 formate] | 943 nM
23.8 nM | 99.6 nM | COc1cc2nc(-c3c(NC(c4ncccn4)C4CC4)c4nn(C)cc4[nH]c3=O)[nH]c2cc1OC (single isomer, unassigned) [Compound 47, (R*)-7-((cyclopropyl(pyrimidin-2-yl)methyl)amino)-6-(5,6-dimethoxy-1H-benzo[d]-imidazol-2-yl)-2-methyl-2H-pyrazolo[4,3-b]pyridin-5 (4H)-one] | –
59.5 nM | 150 nM | CCC(Nc1c(-c2nc3ccc(OCCOC)cc3[nH]2)c(=O)[nH]c2cn(C)nc12)c1ncccn1 (single isomer, unassigned) [Compound 49, (R*)-6-(6-(2-methoxyethoxy)-1H-benzo[d]imidazol-2-yl)-2-methyl-7-((1-(pyrimidin-2-yl)propyl)amino)-2H-pyrazolo[4,3-b]pyridin-5 (4H)-one] | –
347 nM | 1240 nM | CC[C@@H](Nc1c(-c2nc3cnc(N(C)C)cc3[nH]2)c(=O)[nH]c2cn(C)nc12)c1ncccn1 [Compound 21, (R)-6-(6-(dimethylamino)-1H-imidazo[4,5-c]pyridin-2-yl)-2-methyl-7-((1-(pyrimidin-2-yl)propyl)amino)-2H-pyrazolo[4,3-b]pyridin-5 (4H)-one] | –
0.673 nM | 1.83 nM | CCn1cc2[nH]c(=O)c(-c3nc4cc(OC)c(OC)cc4[nH]3)c(N[C@@H](C)c3ncccn3)c2n1 [Compound 37, (S)-6-(5,6-dimethoxy-1H-benzo[d]imidazol-2-yl)-2-ethyl-7-((1-(pyrimidin-2-yl)ethyl)-amino)-2H-pyrazolo[4,3-b]pyridin-5 (4H)-one] | –
